Legend:
Assay type in all cases: biochemical
ERK2 = ERK2 (Homo sapiens (Human), UniProt P28482); assay: ERK2 Alphascreen
activated ERK2 [1] = target: T1, activated ERK2 (Homo sapiens (Human), UniProt P28482); assay: Activated ERK2 (20 pM) Kinase Assay (AlphaScreen, ERKtide phosphorylation); details: 0.02 nM ERK2, 400 nM ERKtide peptide, 35 μM ATP, 30 min preincubation
Method in brief: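 Activated human ERK2 (0.02 nM) preincubated 30 min with compounds, then 400 nM ERKtide and 35 μM ATP added for 4 h at ambient temperature in HEPES pH 7.5, MgCl2, DTT, Tween-20, BSA. EDTA stop; phospho-peptide read by AlphaScreen after overnight dark incubation; four-parameter IC50.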

activated ERK2 [2] = target: T1, activated ERK2; assay: Activated ERK2 kinase assay, ERK2 New conditions (AlphaScreen, ERKtide phosphorylation); details: 0.25 nM ERK2, 200 nM ERKtide peptide, 35 μM ATP, 30 min preincubation
Method in brief: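 0.25 nM ERK2 preincubated 30 min with compound, then reacted 2–3 h at ambient temperature with 200 nM ERKtide and 35 µM ATP (final) in HEPES pH 7.5 buffer. EDTA stop; phospho-peptide detected by AlphaScreen after overnight incubation; IC50 from four-parameter fit.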

T1 sequence (P28482 whole entry): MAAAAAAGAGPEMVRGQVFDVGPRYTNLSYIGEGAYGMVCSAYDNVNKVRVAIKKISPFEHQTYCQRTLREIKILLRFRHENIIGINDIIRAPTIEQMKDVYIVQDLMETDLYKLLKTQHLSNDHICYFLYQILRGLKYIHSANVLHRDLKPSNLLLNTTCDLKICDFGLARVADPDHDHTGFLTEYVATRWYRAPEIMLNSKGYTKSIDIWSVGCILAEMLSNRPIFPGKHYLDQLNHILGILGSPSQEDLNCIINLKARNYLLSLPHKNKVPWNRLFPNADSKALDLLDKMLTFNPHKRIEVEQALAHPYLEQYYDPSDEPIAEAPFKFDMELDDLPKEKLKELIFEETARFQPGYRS
ERK2, sequence (P28482 whole entry, species assumed): as the sequence (P28482 whole entry) above

`Nc1ncc(C2CCNCC2)cc1-c1ccc(C(=O)N[C@H](CO)c2ccccc2)c(F)c1` [Example 2, (S)-4-(2-amino-5-(piperidin-4-yl)pyridin-3-yl)-2-fluoro-N-(2-hydroxy-1-phenylethyl)benzamide] was tested. Which IC50 (ERK2) did it give?
The IC50 was 0.192 µM.

For `Nc1ncc(C2CCOCC2)cc1-c1ccc(C(=O)N[C@H](CO)c2ccccc2)cc1` [Example 64, (S)-4-(2-amino-5-(tetrahydro-2H-pyran-4-yl)pyridin-3-yl)-N-(2-hydroxy-1-phenylethyl)benzamide], which IC50 (activated ERK2 [1]) is on record?
The IC50 was 0.00436 µM.

And the IC50 (ERK2)?
The IC50 was 0.00364 µM.

`Cc1cc(-c2cc(C3CCOCC3)cnc2N)ccc1C(=O)N[C@H](CO)c1ccccc1` [Example 65, (S)-4-(2-amino-5-(tetrahydro-2H-pyran-4-yl)pyridin-3-yl)-N-(2-hydroxy-1-phenylethyl)-2-methylbenzamide] was tested. Which IC50 (activated ERK2 [1]) did it give?
The IC50 was 0.000684 µM.

And the IC50 (ERK2)?
Its IC50 is 0.00184 µM.

With `Nc1ncc(C2CCOCC2)cc1-c1ccc(C(=O)NCc2ccccc2)cc1` [Example 66, 4-(2-amino-5-(tetrahydro-2H-pyran-4-yl)pyridin-3-yl)-N-benzylbenzamide] as the molecule, how does the IC50 (activated ERK2 [1]) read?
The IC50 was 0.0418 µM.

What about the IC50 (ERK2) of the same molecule?
The IC50 was 0.0553 µM.

For `CN(C)c1cccc(CNC(=O)c2ccc(-c3cc(C4CCOCC4)cnc3N)cc2)c1` [Example 67, 4-(2-amino-5-(tetrahydro-2H-pyran-4-yl)pyridin-3-yl)-N-(3-(dimethylamino)benzyl)benzamide], which IC50 (activated ERK2 [1]) is on record?
Its IC50 is 0.0677 µM.

And the IC50 (ERK2)?
The IC50 was 0.0855 µM.

What does the source list for `C[C@@H](NC(=O)c1ccc(-c2cc(C3CCOCC3)cnc2N)cc1)c1ccccc1` [Example 69, (R)-4-(2-amino-5-(tetrahydro-2H-pyran-4-yl)pyridin-3-yl)-N-(1-phenylethyl)benzamide]?
IC50 (activated ERK2 [1]): 0.01 µM; IC50 (ERK2): 0.016 µM

Which results are given for `Cc1cc(C(=O)N[C@H](CO)c2ccccc2)ccc1-c1cc(C2CCOCC2)cnc1N` [Example 70, (S)-4-(2-amino-5-(tetrahydro-2H-pyran-4-yl)pyridin-3-yl)-N-(2-hydroxy-1-phenylethyl)-3-methylbenzamide]?
IC50 (activated ERK2 [1]): 0.331 µM; IC50 (ERK2): 0.574 µM

Which results are given for `Nc1ncc(C2CCOCC2)cc1-c1ccc(C(=O)N[C@H](CO)c2ccccc2)cc1F` [Example 71, (S)-4-(2-amino-5-(tetrahydro-2H-pyran-4-yl)pyridin-3-yl)-3-fluoro-N-(2-hydroxy-1-phenylethyl)benzamide]?
IC50 (activated ERK2 [1]): 0.00878 µM; IC50 (ERK2): 0.0172 µM

Which IC50 (activated ERK2 [1]) does the source give for `Nc1ncc(C2CCS(=O)(=O)CC2)cc1-c1ccc(C(=O)N[C@H](CO)c2ccccc2)cc1` [Example 77, (S)-4-(2-amino-5-(1,1-dioxidotetrahydro-2H-thiopyran-4-yl)pyridin-3-yl)-N-(2-hydroxy-1-phenylethyl)benzamide] here?
The IC50 was 0.0508 µM.

And the IC50 (ERK2)?
Its IC50 is 0.0976 µM.

What does the source list for `Nc1ncc(-c2ccncc2)cc1-c1ccc(C(=O)N[C@H](CO)c2ccccc2)cc1` [Example 80, (S)-4-(6-amino-[3,4′-bipyridin]-5-yl)-N-(2-hydroxy-1-phenylethyl)benzamide]?
IC50 (activated ERK2 [1]): 0.00051 µM; IC50 (ERK2): 0.000584 µM

For `Cc1cnccc1-c1cnc(N)c(-c2ccc(C(=O)N[C@H](CO)c3ccccc3)cc2)c1` [Example 82, (S)-4-(6-amino-3′-methyl-3,4′-bipyridin-5-yl)-N-(2-hydroxy-1-phenylethyl)benzamide], which IC50 (activated ERK2 [1]) is on record?
Its IC50 is 0.0009 µM.

What about the IC50 (ERK2) of the same molecule?
Its IC50 is 0.00213 µM.

For `C[C@@H]1COCCN1c1cnc(N)c(-c2ccc(C(=O)N[C@H](CO)c3ccccc3)c(F)c2)c1` [Example 84, 4-(2-amino-5-((R)-3-methylmorpholino)pyridin-3-yl)-2-fluoro-N-((S)-2-hydroxy-1-phenylethyl)benzamide], which IC50 (activated ERK2 [1]) is on record?
The IC50 was 0.00205 µM.

What about the IC50 (ERK2) of the same molecule?
The IC50 was 0.00964 µM.

What does the source list for `Nc1ncc(C2CCOCC2)cc1-c1ccc(C(=O)NCc2cccc(Cl)c2)cc1` [Example 86, 4-(2-amino-5-(tetrahydro-2H-pyran-4-yl)pyridin-3-yl)-N-(3-chlorobenzyl)benzamide]?
IC50 (activated ERK2 [1]): 0.00375 µM; IC50 (ERK2): 0.00478 µM

What does the source list for `Nc1ncc(C2CCOCC2)cc1-c1ccc(C(=O)NCc2ccccc2Cl)cc1` [Example 87, 4-(2-amino-5-(tetrahydro-2H-pyran-4-yl)pyridin-3-yl)-N-(2-chlorobenzyl)benzamide]?
IC50 (activated ERK2 [1]): 0.209 µM; IC50 (ERK2): 0.266 µM

Which results are given for `Nc1ncc(C2CCOCC2)cc1-c1ccc(C(=O)NCc2ccc(Cl)cc2)cc1` [Example 88, 4-(2-amino-5-(tetrahydro-2H-pyran-4-yl)pyridin-3-yl)-N-(4-chlorobenzyl)benzamide]?
IC50 (activated ERK2 [1]): 0.0705 µM; IC50 (ERK2): 0.0814 µM

How did the IC50 (activated ERK2 [1]) turn out when `Nc1ncc(C2CCOCC2)cc1-c1ccc(C(=O)NCc2cccc(C(F)(F)F)c2)cc1` [Example 89, 4-(2-amino-5-(tetrahydro-2H-pyran-4-yl)pyridin-3-yl)-N-(3-(trifluoromethyl)benzyl)benzamide] was run?
Its IC50 is 0.0202 µM.

And the IC50 (ERK2)?
Its IC50 is 0.0098 µM.

Which IC50 (activated ERK2 [1]) does the source give for `Nc1ncc(C2CCOCC2)cc1-c1ncc(C(=O)N[C@H](CO)c2ccccc2)cn1` [Example 90, (S)-2-(2-amino-5-(tetrahydro-2H-pyran-4-yl)pyridin-3-yl)-N-(2-hydroxy-1-phenylethyl)pyrimidine-5-carboxamide] here?
Its IC50 is 0.033 µM.

And the IC50 (ERK2)?
Its IC50 is 0.049 µM.

With `Nc1ncc(C2CCOCC2)cc1-c1ccc(C(=O)NCC2CC2)cc1` [Example 91, 4-(2-amino-5-(tetrahydro-2H-pyran-4-yl)pyridin-3-yl)-N-(cyclopropylmethyl)benzamide] as the molecule, how does the IC50 (activated ERK2 [1]) read?
Its IC50 is 0.284 µM.

What about the IC50 (ERK2) of the same molecule?
The IC50 was 0.559 µM.

For `CC(=O)Nc1cccc(CNC(=O)c2ccc(-c3cc(C4CCOCC4)cnc3N)cc2)c1` [Example 92, N-(3-acetamidobenzyl)-4-(2-amino-5-(tetrahydro-2H-pyran-4-yl)pyridin-3-yl)benzamide], which IC50 (activated ERK2 [1]) is on record?
Its IC50 is 0.135 µM.

And the IC50 (ERK2)?
Its IC50 is 0.267 µM.

Which results are given for `Nc1ncc(C2CCOCC2)cc1-c1ccc(C(=O)NCc2cccnc2)cc1` [Example 93, 4-(2-amino-5-(tetrahydro-2H-pyran-4-yl)pyridin-3-yl)-N-(pyridin-3-ylmethyl)benzamide]?
IC50 (activated ERK2 [1]): 0.505 µM; IC50 (ERK2): 0.887 µM

`Nc1ncc(C2CCOCC2)cc1-c1ccc(C(=O)N[C@H](CO)c2ccccc2)c(F)c1` [Example 94, (S)-4-(2-amino-5-(tetrahydro-2H-pyran-4-yl)pyridin-3-yl)-2-fluoro-N-(2-hydroxy-1-phenylethyl)benzamide] was tested. Which IC50 (activated ERK2 [1]) did it give?
The IC50 was 0.000879 µM.

What about the IC50 (ERK2) of the same molecule?
The IC50 was 0.000914 µM.

How did the IC50 (activated ERK2 [1]) turn out when `Cc1cc(-c2nc(C3CCOCC3)cnc2N)ccc1C(=O)N[C@H](CO)c1ccccc1` [Example 95, (S)-4-(3-amino-6-(tetrahydro-2H-pyran-4-yl)pyrazin-2-yl)-N-(2-hydroxy-1-phenylethyl)-2-methylbenzamide] was run?
The IC50 was 0.000136 µM.

What about the IC50 (ERK2) of the same molecule?
Its IC50 is 0.000533 µM.

For `COC(=O)N1CCC(c2cnc(N)c(-c3ccc(C(=O)N[C@H](CO)c4ccccc4)cc3)c2)CC1` [Example 98, (S)-methyl 4-(6-amino-5-(4-((2-hydroxy-1-phenylethyl)carbamoyl)phenyl)pyridin-3-yl)piperidine-1-carboxylate], which IC50 (activated ERK2 [1]) is on record?
The IC50 was 0.0158 µM.

What about the IC50 (ERK2) of the same molecule?
The IC50 was 0.0263 µM.

Which IC50 (ERK2) does the source give for `Nc1ncc(C2CCOCC2)nc1-c1ccc(C(=O)NCc2cccc(Cl)c2)c(F)c1` [Example 173, 4-(3-amino-6-(tetrahydro-2H-pyran-4-yl)pyrazin-2-yl)-N-(3-chlorobenzyl)-2-fluorobenzamide] here?
The IC50 was 0.000758 µM.

How did the IC50 (activated ERK2 [2]) turn out when `COCC(=O)N[C@H]1CC[C@H](c2cnc(N)c(-c3ccc(C(=O)N[C@H](CO)c4cccc(Cl)c4)c(F)c3)n2)CC1` [Example 430, 4-(3-amino-6-((1r,4S)-4-(2-methoxy-acetamido)cyclohexyl)pyrazin-2-yl)-N-((S)-1-(3-chlorophenyl)-2-hydroxyethyl)-2-fluorobenzamide] was run?
The IC50 was 0.000787 µM.

And the IC50 (activated ERK2 [1])?
The IC50 was 0.000343 µM.
